The text below walks through data of patent publication EP0671173A1, “Use of a tricyclic derivative for producing a medicament for the treatment of cognitive and memory disorders” (ADIR ET COMPAGNIE, priority 1994, dated 1995).

Assay [1] relates to souris mâles de la lignée BALB/c. Nature of the assay: T-maze: acquisition and retention of a simple spatial discrimination in the mouse. Format: in vivo. To be noted: 10 mg/kg i.p. 30 minutes before the test; for Acquisition de la discrimination : Nombre de réponses correctes sur les 20 premiers essais de l'épreuve: day 3, 12 BALB/c mice per group; for Acquisition de la discrimination : Nombre de réponses correctes sur les 20 premiers essais de l'épreuve / Rétention de la discrimination : Essais au critère: mean ± standard error; for Rétention de la discrimination : Essais au critère: day 4 (24 h after acquisition), criterion 5/5; for Rétention : Réponses correctes sur les cinq premiers essais: placebo 3,0 ± 0,21. The text has this: Comparaison des effets de la tianeptine et de l'isomère (+) de celle-ci sur l'alternance spontanée, l'acquisition et la rétention d'une discrimination spatiale simple (labyrinthe en T) chez la souris.
Le principe du test s'appuie sur la tendance innée qu'ont les mammifères confrontés à un choix entre deux directions à prendre, à aller explorer le lieu qui leur est le moins familier. Un animal placé plusieurs fois successivement à l'entrée d'un labyrinthe en T se dirigera de préférence vers le bras qu'il n'a pas visité précédemment. Pour que ce comportement apparaisse, il est évidemment nécessaire que l'animal se souvienne du dernier bras visité. Ce souvenir met en jeu la mémoire dite de travail. La souris est soumise à une phase d'apprentissage (acquisition) pendant laquelle elle doit choisir plusieurs fois, de suite entre les deux bras, jusq'uà ce qu'elle ait opté cinq fois de suite pour un bras déterminé par l'expérimentateur. Pour apprécier si l'animal a bien retenu ce qu'il a appris au cours de l'épreuve d'acquisition, il est replacé 24 heures plus tard dans la même situation. Le degré de rétention sera mesuré par le nombre d'épreuves subies avant la réussite de cinq essais consécutifs.
Animaux : 36 souris mâles de la lignée BALB/c, vierges de toute expérimentation et âgées de 14 à 16 semaines, sont utilisées. Elles sont placées, 15 jours avant le début des expériences, dans des cages individuelles (animalerie climatisée (22°C) et pourvue d'un cycle artificiel lumière-obscurité de 12 heures (7h ON)).
Appareil : C'est un labyrinthe en T construit en plexiglas de couleur grise. Le couloir central et les deux bras d'arrivée mesurent 35 cm de long, 10 cm de large et 20 cm de haut. Le compartiment de départ (10 x 12 cm) est séparé du couloir central par une porte à guillotine. L'entrée de chaque bras est également pourvue d'une porte. L'appareil utilisé est semi-automatique : l'alimentation des mangeoires, l'ouverture et la fermeture des portes sont commandées par un micro-ordinateur selon le protocole pré-établi.
Protocole : Toutes les épreuves se déroulent entre 9h et 16h et durant 4 jours (de J1 à J4) sans interruption. La ration alimentaire des animaux est réduite de façon à atteindre un poids corporel de 83-84 % du poids ad libitum pour les épreuves d'habituation (J1 et J2) et de 87-88 % lors des épreuves d'alternance et de discrimination spatiale (J3 et J4).
Habituation (J1-J2) : L'expérience proprement dite est précédée de deux séances d'habituation de 10 minutes (exploration libre, une séance par jour). L'animal est simplement placé dans l'appareil toutes portes ouvertes.
Alternances spontanées et acquisition de la discrimination (J3) : Ces deux épreuves ont lieu le lendemain sans interruption. Elles sont destinées à mesurer l'alternance (6 premiers essais) et la vitesse d'acquisition de la discrimination spatiale (essais suivants). Lors des 6 premiers essais, la nourriture est disposée à l'extrémité de chacun des deux bras. Lors de chaque essai, l'animal est placé dans le compartiment de départ pendant 30 secondes (intervalle entre essais). La porte donnant accès au couloir central est ouverte et la souris peut choisir entre les deux bras où elle reste enfermée pendant 30 secondes. On constate que l'animal normal alterne ses choix successifs (65 % d'alternance environ). Apartir du 6ème essai, la nourriture n'est plus disposée que dans un seul bras, toujours le même; le bras choisi est celui qui a été le moins visité au cours des 6 premiers essais. L'épreuve se poursuit alors jusqu'à ce que l'animal atteigne un critère de 5 bonnes réponses sur 5 essais consécutifs.
Rétention de la discrimination spatiale (J4) : Elle se déroule dans les mêmes conditions que l'acquisition (même bras renforcé) et se poursuit pendant un minimum de 10 essais ou, au-delà, jusqu'à l'atteinte du critère de 5/5. Le nombre d'essais est limité à 20. […]

Assay [2] shares this test system. Conditions: 10 mg/kg, mouse; earlier results (Jaffard et coll., Behav. Pharmacol., 1991); cited from earlier work.

The structures appear in SMILES notation.

Regarding `CN1c2ccccc2C(NCCCCCCC(=O)O)c2ccc(Cl)cc2S1(=O)=O` (single isomer, unassigned; (+)) [Isomère (+), (+)7-[(3-chloro-6-méthyl-5,5-dioxo-6,11-dihydrodibenzo[c,f]-[1,2]-thiazepin-11-yl)amino]heptanoatede sodium], in assay [1], the “Acquisition de la discrimination : Nombre de réponses correctes sur les 20 premiers essais de l'épreuve” value is recorded as 14,83 ± 0,75 and the “Rétention de la discrimination : Essais au critère” value is on record as 7,83 ± 0,74 essais. In addition, in assay [1] (day 4), the “Rétention : Réponses correctes sur les dix premiers essais” value is listed as “performances supérieures (p<0,02) à celles du groupe tianeptine” and the “Rétention : Réponses correctes sur les cinq premiers essais” value is on record as 3,92 ± 0,15.
Take `CN1c2ccccc2C(NCCCCCCC(=O)O)c2ccc(Cl)cc2S1(=O)=O` (racemic) [Tianeptine, tianeptine]: in assay [1], the “Acquisition de la discrimination : Nombre de réponses correctes sur les 20 premiers essais de l'épreuve” value is listed as 12,75 ± 0,77 and the “Rétention de la discrimination : Essais au critère” value is 8,58 ± 0,60 essais. In addition, in assay [1] (day 4), the “Rétention : Réponses correctes sur les cinq premiers essais” value was “n'a pas d'effet”. Besides, the “alternance spontanée, acquisition et rétention d'une discrimination simple (labyrinthe en T)” value in assay [2] was “facilitait”.
